Where “and” joins values, the source holds several entries; their conditions need not be identical. Equal entries are not always repeated.
Test system: STAM mice (NASH)
Assay: STAM model of NASH (Example 2): NAFLD activity score, Sirius red, α-SMA staining
Assay type: in vivo, mouse
Parameters: key to NAFLD Activity: Ballooning Score, mean / NAFLD Activity: Steatosis Score, mean / NAFLD Activity: Inflammation Score, mean / NAFLD Activity Score: raw data / NAFLD Activity: Steatosis Score: raw data / NAFLD Activity: Ballooning Score: raw data: NAS = steatosis (0-3) + inflammation (0-2) + ballooning (0-2)
Experimental: Amino Acid Composition A-1 and Obeticholic acid (6α-ethyl-chenodeoxycholic acid; “OCA”) were tested for their ability to treat NASH in the STAM™ model (Stelic Institute & Co., Tokyo, Japan; Saito K. et al., 2015 Sci Rep 5: 12466). Two additional groups of normal C57BL/6 mice fed standard chow and vehicle treated STAM™ mice were included as controls. All animals receiving treatment or vehicle were treated starting at 6 weeks until 9 weeks of age. Compounds were administered via oral gavage, with a dose volume of 10 ml/kg. Amino Acid Composition A-1 was administered twice daily at a dose of 1500 mg/kg, and OCA was administered once daily at a dose of 30 mg/kg.
STAM™ is a model for non-alcoholic steatohepatitis (NASH) and hepatocellular carcinoma (HCC), developed by SMC Laboratories, Inc. and created by the combination of chemical and dietary interventions using C57BL/6 mice (Saito K. et al., 2015 Sci Rep 5: 12466). Mice are treated with a low dose of streptozotocin at birth and fed a high fat diet starting at 4 weeks. Evidence of fatty liver is present by 5 weeks, followed by NASH by 7 weeks and fibrosis by 9 weeks.
NASH was induced in 53 male mice by a single subcutaneous injection of 200 μg streptozotocin (STZ, Sigma-Aldrich, USA) solution 2 days after birth and feeding with high fat diet (HFD, 57 kcal % fat, Cat #HFD32, CLEA Japan, Japan) after 4 weeks of age.
Amino Acid Composition A-1, OCA and Vehicle (described below) were administered by oral route in a volume of 10 mL/kg. Amino Acid Composition A-1 was solubilized in deionized water to 150 mg/ml (10×). OCA (Advanced ChemBlocks Inc.) was resuspended in 0.5% methylcellulose in water to 3 mg/ml (10×). Amino Acid Composition A-1 was administered at a dose of 1500 mg/kg twice daily (9 am and 7 pm). OCA was administered at a dose of 30 mg/kg once daily (9 am).
Liver samples from mice in Group 2 (Vehicle), 3 (Amino Acid Composition A-1) and 4 (OCA) were used for the following assays. For HE staining, sections were cut from paraffin blocks of liver tissue prefixed in Bouin's solution and stained with Lillie-Mayer's Hematoxylin (Muto Pure Chemicals Co., Ltd., Japan) and eosin solution (Wako Pure Chemical Industries). NAFLD Activity score (NAS) was calculated according to the criteria of Kleiner (Kleiner D. E. et al., Hepatology, 2005; 41:1313).
Group 3: Amino Acid Composition A-1: Ten NASH mice were orally administered water for irrigation supplemented with Amino Acid Composition A-1 at a dose of 1500 mg/kg twice daily (9 am and 7 pm) from 6 to 9 weeks of age.
Group 4: OCA: Ten NASH mice were orally administered 0.5% methylcellulose supplemented with OCA at a dose of 30 mg/kg once daily (9 am) from 6 to 9 weeks of age.
The non-alcoholic fatty liver disease (NAFLD) activity score was assessed via histological analysis and grading of H&E stained liver sections from each animal. This score is the sum of three individual scores that grade the degree of steatosis (0-3), inflammation (0-2), and hepatocyte ballooning (0-2). All tissues were graded using the scoring criteria of Kleiner et al. (Kleiner et al. Hepatology. 2005; 41(6): 1313-21). Data are mean±standard deviation (stdev). […] Both Amino Acid Composition A-1 and OCA were statistically different from vehicle for NAFLD Activity Score when compared using Dunnett's multiple comparisons test (Amino Acid Composition A-1 p=0.0001, OCA p=0.0001).
Fibrosis was assessed by analysis of Sirius red positively stained cell area from stained liver sections from each animal. Images were quantified using the percent of positively stained area was used as a measure of fibrosis. Data are mean±standard deviation (stdev). […] Amino Acid Composition A-1 and OCA were statistically different from vehicle when compared using Dunnett's multiple comparisons test (Amino Acid Composition A-1 p=0.00494, OCA p<0.016).
Liver sections of all mice were stained for the marker α-smooth muscle actin (aSMA) to identify activated hepatic stellate cells. […]

[1] = STAM mice liver sections, A-1 1500 mg/kg twice daily, OCA 30 mg/kg once daily
[2] = STAM mice treated 6 to 9 weeks of age, A-1 1500 mg/kg twice daily, OCA 30 mg/kg once daily

With CC[C@H]1[C@@H](O)[C@@H]2[C@H](CC[C@]3(C)[C@@H]([C@H](C)CCC(=O)O)CC[C@@H]23)[C@@]2(C)CC[C@@H](O)C[C@@H]12 [OCA, 6α-ethyl-chenodeoxycholic acid] the “Activated hepatic stellate cells (mean positively stained area, α-smooth muscle actin)” value [1] was 1.562+/−0.31% and 1.562%, the “Fibrosis (mean positively stained area, Sirius red)” value [1] was 0.776+/−0.25% and 0.776% and the “NAFLD Activity: Ballooning Score, mean” value [2] was 0.3+/−0.48 and 0.3. For the same compound, the “NAFLD Activity: Inflammation Score, mean” value [2] was 1.8, the “NAFLD Activity: Steatosis Score, mean” value [2] was 0.8 and the “NAFLD Activity Score (NAS), mean” value (STAM mice treated 6 to 9 weeks of age, A-1 1500 mg/kg twice daily, OCA 30 mg/kg once daily, oral) was 2.9+/−0.74 and 2.9. The “Activated hepatic stellate cells (positively stained area, α-smooth muscle actin): raw data” value (individual STAM mice) was 1.51% and 1.49% (2×) and 1.17% and 1.5% and 1.13% and 2.03% and 1.87% and 1.97% and 1.46%, the “Fibrosis (positively stained area, Sirius red): raw data” value (individual STAM mice) was 1.1% and 1.19% and 0.89% and 0.91% and 0.66% and 0.72% and 0.68% and 0.69% and 0.36% and 0.56% and the “NAFLD Activity Score: raw data” value (individual STAM mice) was 2 (3×) and 4 (2×) and 3 (5×). The “NAFLD Activity: Ballooning Score: raw data” value (individual STAM mice) was 0 (7×) and 1 (3×), the “NAFLD Activity: Inflammation Score: raw data” value (individual STAM mice) was 1 (4×) and 2 (4×) and 3 (2×) and the “NAFLD Activity: Steatosis Score: raw data” value (individual STAM mice) was 1 (8×) and 0 (2×).
